Test [1] addresses T1, Human transferrin (hTf) (Homo sapiens, UniProt P02787).
T1 construct: gene TF
The test can be described thus: isothermal titration calorimetry (VP-ITC). Type of test: binding. As to conditions: 25 °C; 20 mM sodium phosphate pH 7.4; four-site fit, first site; large fit error, Ka4 printed negative; unreliable. Background: ITC needs no label: the signal is the heat of the interaction.

Test [2] addresses T1, Human transferrin (hTf). Nature of the test: intrinsic fluorescence quenching, modified Stern-Volmer. The class given is binding. As to conditions: 301 K; 20 mM sodium phosphate pH 7.4; n = 1.25; double-log. The text has this: intrinsic fluorescence quenching, modified Stern-Volmer on Human transferrin (hTf)

T1 sequence (P02787 20-698): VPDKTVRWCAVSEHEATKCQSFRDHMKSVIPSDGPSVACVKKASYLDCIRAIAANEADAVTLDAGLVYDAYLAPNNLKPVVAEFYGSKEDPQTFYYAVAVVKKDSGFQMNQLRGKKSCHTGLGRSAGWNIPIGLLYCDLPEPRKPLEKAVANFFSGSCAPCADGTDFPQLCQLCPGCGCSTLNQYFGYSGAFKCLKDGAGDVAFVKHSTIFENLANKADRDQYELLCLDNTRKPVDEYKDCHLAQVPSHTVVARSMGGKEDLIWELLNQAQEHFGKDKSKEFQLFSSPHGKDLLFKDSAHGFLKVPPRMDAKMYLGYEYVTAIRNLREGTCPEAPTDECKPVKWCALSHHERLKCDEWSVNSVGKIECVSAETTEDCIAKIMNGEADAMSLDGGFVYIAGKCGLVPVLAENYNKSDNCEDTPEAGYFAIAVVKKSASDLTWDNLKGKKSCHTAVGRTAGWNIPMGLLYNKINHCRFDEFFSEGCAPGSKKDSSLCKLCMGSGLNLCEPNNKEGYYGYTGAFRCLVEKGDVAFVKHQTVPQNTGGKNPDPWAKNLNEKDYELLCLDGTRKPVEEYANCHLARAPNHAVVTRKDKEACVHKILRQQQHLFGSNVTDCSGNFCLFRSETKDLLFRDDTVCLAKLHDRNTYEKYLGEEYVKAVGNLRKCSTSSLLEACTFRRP

`O=C(/C=C/c1ccc(O)c(O)c1)O[C@H](Cc1ccc(O)c(O)c1)C(=O)O` [Rosmarinic acid]: the Ka1 in test [1] amounted to 115000 ± 81000 M⁻¹. The “K (10^7 M^-1)” value in test [2] is 0.107 × 10^7 M^-1.
